Values of other authors as cited in PMC6832352, “Synthesis and Glycosidase Inhibition of Broussonetine M and Its Analogues” (Molecules, 2019).
Read-outs that look alike come from different tables or passages of the source.

How the values were obtained:
[1] = biological target: Rat intestinal maltase; settings: cited from earlier work
[2] = biological target: T1, α-Mannosidase (Canavalia ensiformis, UniProt C0HJB3); settings: Jack bean, cited from earlier work
T1 construct: purchased Sigma-Aldrich Chemical Co
T1 sequence (C0HJB3 1-981): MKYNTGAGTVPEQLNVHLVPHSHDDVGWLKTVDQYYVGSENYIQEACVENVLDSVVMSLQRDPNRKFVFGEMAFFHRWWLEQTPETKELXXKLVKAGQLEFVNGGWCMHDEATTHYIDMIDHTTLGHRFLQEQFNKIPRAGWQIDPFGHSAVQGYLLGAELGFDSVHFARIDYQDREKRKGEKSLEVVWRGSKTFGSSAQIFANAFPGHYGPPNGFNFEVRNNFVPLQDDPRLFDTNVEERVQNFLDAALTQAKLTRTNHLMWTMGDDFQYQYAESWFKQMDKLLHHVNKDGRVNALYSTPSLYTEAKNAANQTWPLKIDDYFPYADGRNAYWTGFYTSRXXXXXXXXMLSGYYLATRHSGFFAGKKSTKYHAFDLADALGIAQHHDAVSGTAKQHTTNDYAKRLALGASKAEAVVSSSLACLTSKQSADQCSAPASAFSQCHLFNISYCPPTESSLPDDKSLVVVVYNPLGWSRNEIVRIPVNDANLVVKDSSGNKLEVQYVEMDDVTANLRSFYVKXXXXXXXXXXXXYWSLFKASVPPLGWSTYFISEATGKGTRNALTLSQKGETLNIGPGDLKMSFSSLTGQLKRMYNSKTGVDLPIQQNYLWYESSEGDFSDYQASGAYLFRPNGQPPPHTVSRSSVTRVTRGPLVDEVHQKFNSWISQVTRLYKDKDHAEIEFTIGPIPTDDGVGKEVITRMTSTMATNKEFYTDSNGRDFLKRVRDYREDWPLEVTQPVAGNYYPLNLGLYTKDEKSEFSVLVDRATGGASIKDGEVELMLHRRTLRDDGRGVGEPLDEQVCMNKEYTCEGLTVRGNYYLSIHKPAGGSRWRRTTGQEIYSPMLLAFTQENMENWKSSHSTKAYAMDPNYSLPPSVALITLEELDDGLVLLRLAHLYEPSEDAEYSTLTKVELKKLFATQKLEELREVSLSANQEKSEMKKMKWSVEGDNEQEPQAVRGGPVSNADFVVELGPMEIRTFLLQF

[3] = biological target: β-Glucosidase; settings: Almond, cited from earlier work; for inhibition %: at 1000 μM
[4] = biological target: β-Mannosidase; settings: Snail, cited from earlier work
[5] = biological target: T2, β-Glucuronidase (Escherichia coli, UniProt P05804); parameters: method as in PMID 22928735; settings: E.coli, cited from earlier work; for inhibition %: at 1000 μM
T2 construct: purchased Sigma-Aldrich Chemical Co

[6] = test system: β-Galactosidase; settings: β-Galactosidase, Bovine liver, cited from earlier work
[7] = biological target: T3, α-Glucosidase (Saccharomyces cerevisiae, UniProt P53341); settings: Yeast, cited from earlier work; for inhibition %: at 1000 μM
T3 construct: purchased Sigma-Aldrich Chemical Co

[8] = biological target: T4, α-L-Fucosidase (Bos taurus, UniProt Q2KIM0); settings: Bovine kidney, cited from earlier work
T4 construct: purchased Sigma-Aldrich Chemical Co; host or cells: bovine kidney
T4 sequence (Q2KIM0 23-468): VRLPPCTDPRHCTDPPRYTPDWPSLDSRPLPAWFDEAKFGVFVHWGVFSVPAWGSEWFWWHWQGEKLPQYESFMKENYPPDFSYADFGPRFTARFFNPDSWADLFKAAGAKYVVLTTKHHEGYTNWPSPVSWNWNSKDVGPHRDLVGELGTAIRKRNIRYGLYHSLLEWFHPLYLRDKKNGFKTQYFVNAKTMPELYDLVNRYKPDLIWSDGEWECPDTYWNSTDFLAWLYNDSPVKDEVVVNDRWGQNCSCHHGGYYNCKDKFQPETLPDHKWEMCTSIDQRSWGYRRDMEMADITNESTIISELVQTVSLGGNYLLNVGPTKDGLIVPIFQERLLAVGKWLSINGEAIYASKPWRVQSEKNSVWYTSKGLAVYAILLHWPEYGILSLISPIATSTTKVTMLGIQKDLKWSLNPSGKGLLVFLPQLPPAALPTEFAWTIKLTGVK

[9] = biological target: T5, β-Glucosidase (Bos taurus, UniProt F1MNT6); settings: Bovine liver, cited from earlier work
T5 sequence (F1MNT6 1-469): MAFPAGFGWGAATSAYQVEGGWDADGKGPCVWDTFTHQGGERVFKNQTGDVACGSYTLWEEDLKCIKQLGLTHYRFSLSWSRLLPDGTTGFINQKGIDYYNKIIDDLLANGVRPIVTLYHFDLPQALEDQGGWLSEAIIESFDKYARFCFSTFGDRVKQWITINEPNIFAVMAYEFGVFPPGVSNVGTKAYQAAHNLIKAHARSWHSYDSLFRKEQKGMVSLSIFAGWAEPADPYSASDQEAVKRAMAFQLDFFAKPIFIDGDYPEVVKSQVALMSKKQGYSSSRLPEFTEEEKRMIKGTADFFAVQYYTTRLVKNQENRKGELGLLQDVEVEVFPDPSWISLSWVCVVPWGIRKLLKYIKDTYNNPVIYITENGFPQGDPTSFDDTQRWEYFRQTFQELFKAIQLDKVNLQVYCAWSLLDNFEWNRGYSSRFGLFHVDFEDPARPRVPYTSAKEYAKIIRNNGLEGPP

[10] = biological target: T6, α-L-Rhamnosidase (Penicillium decumbens, UniProt S7ZS15); settings: P. decumbens, cited from earlier work
T6 sequence (S7ZS15 1-894): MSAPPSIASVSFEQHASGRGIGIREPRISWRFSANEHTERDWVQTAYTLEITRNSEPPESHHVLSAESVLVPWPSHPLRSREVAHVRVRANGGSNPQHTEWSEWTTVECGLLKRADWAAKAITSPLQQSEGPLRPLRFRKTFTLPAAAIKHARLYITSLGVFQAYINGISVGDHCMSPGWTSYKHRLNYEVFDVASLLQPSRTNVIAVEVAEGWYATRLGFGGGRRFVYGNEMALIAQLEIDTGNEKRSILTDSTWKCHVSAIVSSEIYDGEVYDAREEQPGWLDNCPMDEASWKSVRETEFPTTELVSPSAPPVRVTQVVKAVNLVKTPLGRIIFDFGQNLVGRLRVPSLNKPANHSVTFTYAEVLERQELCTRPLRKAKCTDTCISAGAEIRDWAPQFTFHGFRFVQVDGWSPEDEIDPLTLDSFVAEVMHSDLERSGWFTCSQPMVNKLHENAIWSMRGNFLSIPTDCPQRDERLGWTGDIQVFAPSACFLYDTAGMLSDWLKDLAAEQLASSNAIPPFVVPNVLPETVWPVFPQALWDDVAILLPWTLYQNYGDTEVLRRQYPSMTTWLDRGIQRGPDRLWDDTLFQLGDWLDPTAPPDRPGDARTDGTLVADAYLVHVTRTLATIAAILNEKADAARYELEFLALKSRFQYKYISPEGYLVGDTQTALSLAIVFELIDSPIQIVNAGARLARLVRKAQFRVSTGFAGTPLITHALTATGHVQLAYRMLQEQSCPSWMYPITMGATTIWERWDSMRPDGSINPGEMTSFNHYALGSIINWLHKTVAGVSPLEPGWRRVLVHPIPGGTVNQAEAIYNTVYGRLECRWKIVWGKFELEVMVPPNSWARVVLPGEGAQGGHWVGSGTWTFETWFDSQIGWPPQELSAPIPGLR

[11] = biological target: T7, α-Galactosidase (Coffea arabica, UniProt Q42656); settings: Coffee beans, cited from earlier work
T7 construct: purchased Sigma-Aldrich Chemical Co

[12] = biological target: T8, α-Glucosidase (Oryza sativa subsp. japonica, UniProt Q653V7); settings: Rice, cited from earlier work
T8 construct: purchased Sigma-Aldrich Chemical Co

[13] = biological target: T9, Amyloglucosidase (Aspergillus niger, UniProt P69328); parameters: method as in PMID 21157573; settings: A. niger, cited from earlier work
T9 construct: purchased Sigma-Aldrich Chemical Co

[14] = test system: β-glycosidase; parameters: method as in earlier work; settings: cited from earlier work

T9 sequence (P69328 25-640): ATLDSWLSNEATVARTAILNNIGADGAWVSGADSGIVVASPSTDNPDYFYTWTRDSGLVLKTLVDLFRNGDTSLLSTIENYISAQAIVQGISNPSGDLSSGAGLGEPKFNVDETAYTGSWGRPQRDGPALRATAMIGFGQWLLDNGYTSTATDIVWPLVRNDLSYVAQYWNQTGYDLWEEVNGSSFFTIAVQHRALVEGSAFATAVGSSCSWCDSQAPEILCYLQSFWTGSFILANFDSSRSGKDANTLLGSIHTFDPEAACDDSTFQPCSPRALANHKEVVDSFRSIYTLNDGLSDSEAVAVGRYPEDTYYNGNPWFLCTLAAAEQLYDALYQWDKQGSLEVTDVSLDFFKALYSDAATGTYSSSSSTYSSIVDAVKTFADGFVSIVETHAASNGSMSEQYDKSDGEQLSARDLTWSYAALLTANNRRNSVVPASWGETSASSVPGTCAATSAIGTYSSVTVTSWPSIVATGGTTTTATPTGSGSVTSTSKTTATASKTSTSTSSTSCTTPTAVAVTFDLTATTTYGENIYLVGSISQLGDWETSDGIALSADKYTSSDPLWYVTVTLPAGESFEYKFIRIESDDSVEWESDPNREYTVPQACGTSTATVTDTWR
T8 sequence (Q653V7 34-885): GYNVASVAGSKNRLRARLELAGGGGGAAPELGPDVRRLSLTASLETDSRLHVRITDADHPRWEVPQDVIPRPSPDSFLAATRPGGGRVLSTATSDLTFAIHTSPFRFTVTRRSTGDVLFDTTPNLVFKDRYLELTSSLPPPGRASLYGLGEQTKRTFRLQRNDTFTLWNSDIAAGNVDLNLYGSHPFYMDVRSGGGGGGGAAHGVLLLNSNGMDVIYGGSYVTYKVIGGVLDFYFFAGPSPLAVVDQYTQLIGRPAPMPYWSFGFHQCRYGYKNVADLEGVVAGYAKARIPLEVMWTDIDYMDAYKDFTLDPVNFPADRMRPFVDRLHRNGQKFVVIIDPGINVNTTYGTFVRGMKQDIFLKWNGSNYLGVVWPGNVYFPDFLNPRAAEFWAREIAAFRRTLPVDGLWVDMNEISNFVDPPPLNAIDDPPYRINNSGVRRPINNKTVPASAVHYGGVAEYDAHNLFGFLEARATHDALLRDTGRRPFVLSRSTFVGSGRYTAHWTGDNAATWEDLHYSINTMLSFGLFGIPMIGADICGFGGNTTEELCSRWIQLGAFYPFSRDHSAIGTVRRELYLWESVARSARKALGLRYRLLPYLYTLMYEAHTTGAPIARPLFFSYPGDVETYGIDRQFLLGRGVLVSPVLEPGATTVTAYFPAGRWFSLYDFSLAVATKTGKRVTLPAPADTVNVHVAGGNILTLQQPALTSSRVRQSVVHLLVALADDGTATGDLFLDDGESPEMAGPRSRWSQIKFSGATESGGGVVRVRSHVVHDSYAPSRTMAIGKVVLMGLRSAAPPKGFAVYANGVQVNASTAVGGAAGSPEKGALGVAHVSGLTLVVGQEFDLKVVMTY
T3 sequence (P53341 whole entry): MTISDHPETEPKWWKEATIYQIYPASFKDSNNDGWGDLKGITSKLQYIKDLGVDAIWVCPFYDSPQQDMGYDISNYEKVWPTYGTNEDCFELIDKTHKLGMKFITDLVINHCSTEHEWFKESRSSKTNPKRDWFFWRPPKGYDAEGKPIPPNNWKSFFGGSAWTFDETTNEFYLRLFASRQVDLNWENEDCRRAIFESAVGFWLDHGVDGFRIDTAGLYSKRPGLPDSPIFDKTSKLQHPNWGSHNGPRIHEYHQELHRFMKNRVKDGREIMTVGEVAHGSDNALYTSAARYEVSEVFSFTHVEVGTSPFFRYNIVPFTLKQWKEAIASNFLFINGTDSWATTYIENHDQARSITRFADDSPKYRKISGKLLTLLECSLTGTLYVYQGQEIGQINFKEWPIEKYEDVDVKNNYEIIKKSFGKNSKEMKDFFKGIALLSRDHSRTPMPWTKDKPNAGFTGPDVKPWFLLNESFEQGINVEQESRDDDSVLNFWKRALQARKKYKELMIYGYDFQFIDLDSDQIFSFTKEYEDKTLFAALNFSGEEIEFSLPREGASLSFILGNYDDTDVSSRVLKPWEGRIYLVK
T2 sequence (P05804 whole entry): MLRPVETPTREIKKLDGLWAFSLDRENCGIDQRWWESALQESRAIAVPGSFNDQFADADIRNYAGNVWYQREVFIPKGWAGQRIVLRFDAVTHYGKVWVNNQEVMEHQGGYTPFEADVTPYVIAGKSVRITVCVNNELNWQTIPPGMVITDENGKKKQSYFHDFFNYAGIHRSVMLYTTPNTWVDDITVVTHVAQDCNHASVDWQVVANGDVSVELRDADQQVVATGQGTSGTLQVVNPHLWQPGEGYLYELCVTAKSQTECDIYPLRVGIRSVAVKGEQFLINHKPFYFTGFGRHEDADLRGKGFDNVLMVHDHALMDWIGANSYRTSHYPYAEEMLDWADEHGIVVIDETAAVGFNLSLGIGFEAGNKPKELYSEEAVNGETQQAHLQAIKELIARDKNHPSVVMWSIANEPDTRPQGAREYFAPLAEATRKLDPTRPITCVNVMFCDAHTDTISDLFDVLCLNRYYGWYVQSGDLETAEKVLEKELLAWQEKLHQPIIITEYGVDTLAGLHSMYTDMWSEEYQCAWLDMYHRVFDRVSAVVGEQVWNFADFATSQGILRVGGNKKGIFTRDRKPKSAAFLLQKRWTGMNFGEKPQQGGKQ
T7 sequence (Q42656 16-378): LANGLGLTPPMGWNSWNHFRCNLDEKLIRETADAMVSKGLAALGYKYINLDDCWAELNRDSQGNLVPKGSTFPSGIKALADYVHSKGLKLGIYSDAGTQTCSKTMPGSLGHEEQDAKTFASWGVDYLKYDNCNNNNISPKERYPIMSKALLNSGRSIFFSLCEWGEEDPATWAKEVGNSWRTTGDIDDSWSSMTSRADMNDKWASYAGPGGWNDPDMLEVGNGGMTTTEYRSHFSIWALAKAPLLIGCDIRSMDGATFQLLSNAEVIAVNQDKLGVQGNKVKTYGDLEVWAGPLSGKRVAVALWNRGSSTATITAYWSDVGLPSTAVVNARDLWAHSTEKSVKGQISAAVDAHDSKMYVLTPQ

| Compound | IC50 [1] [µM] | IC50 [2] [µM] | inhibition % ([2]; at 1000 μM) [%] | IC50 [3] [µM] | IC50 [4] [µM] | inhibition % ([4]; at 1000 μM) [%] | IC50 [5] [µM] | inhibition % [5] [%] | IC50 [6] [µM] | IC50 [7] [µM] | inhibition % [7] [%] | inhibition % ([8]; at 1000 μM) [%] | inhibition % ([10]; at 1000 μM) [%] | inhibition % ([11]; at 1000 μM) [%] | β-glycosidase inhibition (in words) [14] | further results |
| --- | --- | --- | --- | --- | --- | --- | --- | --- | --- | --- | --- | --- | --- | --- | --- | --- |
| OC[C@@H]1N[C@@H](CO)[C@H](O)[C@H]1O (single isomer, unassigned) [L-DMDP (ent-2)] | 1.2 | […] | 17.3 | […] | […] | 12.6 | […] | 0.8 | […] | […] | 34.9 | […] | 45.6 | 13.8 |  | inhibition % [3]: 12.1%; inhibition % ([6]; at 1000 μM): […]; inhibition % ([9]; at 1000 μM): 4.6% |
| OC[C@@H]1N[C@H](CO)[C@@H](O)[C@@H]1O [D-gluco-DMDP] | 138 | […] | 13.3 | 256 | […] | 14.6 | […] | 5.1 | […] | 167 |  | 37.2 | 24.1 | 38.4 |  |  |
| OC[C@H]1NC[C@@H](O)[C@@H]1O [DAB (1), 1,4-dideoxy-1,4-imino-D-arabinitol] |  |  |  | 250 | > 1000 |  |  |  | > 1000 | 0.15 |  |  |  |  |  | IC50 [12]: 250 µM; inhibition % ([4]; at 1000 μM (per NI footnote)): 10%; inhibition % ([6]; at 1000 μM (per NI footnote)): 37%; IC50 [8]: > 1000 µM; inhibition % ([8]; at 1000 μM (per NI footnote)): 11%; IC50 [13]: 362 µM; IC50 [9]: 638 µM; inhibition % ([10]; at 1000 μM (per NI footnote)): 5%; IC50 [11]: > 1000 µM; inhibition % ([11]; at 1000 μM (per NI footnote)): 7% |
| OCC1NC(CO)C(O)C1O (stereo not shown) [DMDP (2), 2,5-dihydroxymethyl-3,4-dihydroxypyrrolidine] | 290 | […] | 31.5 | […] | 721 |  | […] | 0.4 | […] | […] | 15.6 | 37.2 | 24.1 | 10.5 |  |  |
| OC[C@@H]1N[C@@H](CO)[C@@H](O)[C@H]1O [L-altro-DMDP] | 754 | […] | 37.6 | […] | […] | 3.7 | […] | 2.0 | […] | […] | 35.1 |  |  |  |  | inhibition % ([12]; at 1000 μM): 9.5%; inhibition % [3]: 15.9%; inhibition % ([6]; at 1000 μM): […]; inhibition % ([9]; at 1000 μM): 10.3% |
| OC[C@@H]1NC[C@H](O)[C@H]1O [LAB (ent-1), 1,4-dideoxy-1,4-imino-L-arabinitol] |  | > 1000 |  | > 1000 | > 1000 |  |  |  | > 1000 | 70 |  |  |  |  |  | inhibition % ([2]; at 1000 μM (per NI footnote)): 0%; IC50 [12]: 3.2 µM; inhibition % ([4]; at 1000 μM (per NI footnote)): 1%; inhibition % ([6]; at 1000 μM (per NI footnote)): 16%; IC50 [8]: > 1000 µM; inhibition % ([8]; at 1000 μM (per NI footnote)): 0%; IC50 [13]: > 1000 µM; inhibition % ([13]; at 1000 μM (per NI footnote)): 41%; inhibition % ([9]; at 1000 μM (per NI footnote)): 13%; IC50 [11]: > 1000 µM; inhibition % ([11]; at 1000 μM (per NI footnote)): 2% |
| O=C(CCCO)CCCCCCCC[C@@H](O)[C@H]1N[C@H](CO)[C@@H](O)[C@@H]1O [compound 4, broussonetine E] |  |  |  |  |  |  |  |  |  |  |  |  |  |  | potent β-glycosidase inhibition |  |
| O=C(CCCCO)CCCCCCC[C@@H](O)[C@H]1N[C@H](CO)[C@@H](O)[C@@H]1O [compound 5, broussonetine F] |  |  |  |  |  |  |  |  |  |  |  |  |  |  | potent β-glycosidase inhibition |  |
| OCC1NC(C(O)CCCCC2CCCC3(CCCO3)O2)C(O)C1O (stereo not shown) [compound 6, broussonetine G] |  |  |  |  |  |  |  |  |  |  |  |  |  |  | potent β-glycosidase inhibition |  |
